Results published in patent US7354917B2, “Oxabispidine compounds and their use in the treatment of cardiac arrhythmias” (AstraZeneca AB, priority 2004, dated 2008).
Structures can show the parent of a compound that is named as a salt.

Biological target: T1, HERG channel (Homo sapiens, UniProt Q12809)
T1 construct: expressed in transfected cells
Assay: Test B: Rb+-efflux assay for detection of HERG channel blockers
Type: cell-based
Conditions: depolarisation-induced Rb+-efflux from Chinese hamster ovary cells stably expressing the HERG-channel; read-out: pIC50 for HERG channel blockade (converted)
Procedure: Rb^+-Efflux Assay for Detection of HERG Channel Blockers
The human ether-a-go-go related gene (HERG) encodes the voltage-gated K^+ channel underlying the cardiac rapid delayed rectifier current IKr. The IC50 value for HERG channel blockade was determined using a high throughput functional assay based on depolarisation-induced Rb^+-efflux from Chinese hamster ovary cells stably expressing the HERG-channel.
Cells were grown in Ham F12 (Life Technologies 31765-027) supplemented with 10% FBS and 0.6 mg/mL hygromycin B and were routinely passaged twice-weekly. For experimental studies, cells were plated at a density of 15,000 cells/well in Falcon, 384-well tissue culture-treated black-walled clear-bottomed plates and were thereafter incubated overnight at 37° C. in a cell culture incubator.
Following incubating overnight, cell plates were washed and a Rb^+-Load buffer (a physiological buffer containing Rb^+) was added. Cell plates were then incubated for 3 hours and were thereafter washed. Following this wash, the test compounds were added. The cell plates were then incubated for another 10 minutes and, following this incubation period, external K^+ concentration was increased in order to depolarize the cells and activate HERG channels. After a ten minute exposure period to the increased K^+ concentration, supernatants were transferred to new microplates for subsequent determination of Rb^+ content, using Atomic Absorption Spectrometry analysis.
The basal Rb^+ efflux (content of Rb^+ (mg/L) in supernatants of wells receiving only wash buffer) was defined as 100% inhibition and the stimulated Rb^+efflux (content of Rb^+ (mg/L) in supernatants of wells exposed only to increased external potassium concentration) was defined as 0% inhibition.
Compound activity was expressed as: […]
A: Rb^+ content in wells receiving test compound+increased external K^+.
C: Stimulated Rb^+ efflux.

T1 sequence (Q12809 whole entry): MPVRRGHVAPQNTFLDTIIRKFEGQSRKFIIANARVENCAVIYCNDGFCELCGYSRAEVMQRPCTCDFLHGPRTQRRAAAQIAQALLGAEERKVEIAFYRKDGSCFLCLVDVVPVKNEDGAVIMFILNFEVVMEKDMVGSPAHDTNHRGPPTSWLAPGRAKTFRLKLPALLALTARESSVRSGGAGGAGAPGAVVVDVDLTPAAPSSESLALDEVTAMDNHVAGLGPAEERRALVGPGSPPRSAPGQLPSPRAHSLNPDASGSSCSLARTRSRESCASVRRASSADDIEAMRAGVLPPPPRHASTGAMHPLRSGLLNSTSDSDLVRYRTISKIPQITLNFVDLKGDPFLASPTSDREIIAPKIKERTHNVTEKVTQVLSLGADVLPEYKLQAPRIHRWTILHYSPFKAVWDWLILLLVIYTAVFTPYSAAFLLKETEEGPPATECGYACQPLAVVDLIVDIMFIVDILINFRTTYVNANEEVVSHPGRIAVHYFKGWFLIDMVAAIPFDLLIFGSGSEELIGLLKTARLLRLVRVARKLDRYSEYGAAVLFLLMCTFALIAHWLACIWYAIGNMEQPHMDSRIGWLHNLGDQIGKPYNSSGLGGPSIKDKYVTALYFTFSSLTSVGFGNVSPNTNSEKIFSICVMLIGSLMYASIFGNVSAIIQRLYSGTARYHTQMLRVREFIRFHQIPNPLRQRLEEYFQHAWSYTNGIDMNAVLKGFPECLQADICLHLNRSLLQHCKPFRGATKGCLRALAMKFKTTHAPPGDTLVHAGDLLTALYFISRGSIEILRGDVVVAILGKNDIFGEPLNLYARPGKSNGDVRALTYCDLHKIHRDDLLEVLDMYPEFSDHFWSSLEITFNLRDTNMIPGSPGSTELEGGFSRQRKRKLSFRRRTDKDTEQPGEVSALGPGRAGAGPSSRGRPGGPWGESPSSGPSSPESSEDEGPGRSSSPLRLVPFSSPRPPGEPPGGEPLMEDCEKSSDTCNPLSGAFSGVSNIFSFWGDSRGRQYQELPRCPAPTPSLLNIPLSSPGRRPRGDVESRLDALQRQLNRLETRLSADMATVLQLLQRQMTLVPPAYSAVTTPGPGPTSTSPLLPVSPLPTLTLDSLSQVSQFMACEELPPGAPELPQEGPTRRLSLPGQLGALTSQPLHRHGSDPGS

Row | Structure (SMILES) | IC50
1 | CN(C)C(=O)N(CCOc1ccc(C#N)cc1)CCN1CC2CN(Cc3ccc(OC(F)F)cc3)CC(C1)O2 [9 (xlvi), N-[2-(4-cyanophenoxy)ethyl]-N-(2-{7-[4-(difluoromethoxy)-benzyl]-9-oxa-3,7-diazabicyclo[3.3.1]non-3-yl}ethyl)-N′,N′-dimethylurea] | 4170 nM
2 | CS(=O)(=O)N(CCOc1ccc(C#N)cc1)CCN1CC2CN(Cc3ccccc3)CC(C1)O2 [Example 2, N-[2-(7-Benzyl-9-oxa-3,7-diazabicyclo[3.3.1]non-3-yl)ethyl]-N-[2-(4-cyanophenoxy)ethyl]methanesulfonamide, tartaric acid salt] | 2820 nM
3 | CS(=O)(=O)N(CCOc1ccc(C#N)cc1)CCN1CC2CN(Cc3ccc(F)cc3)CC(C1)O2 [Example 3, N-[2-(4-Cyanophenoxy)ethyl]-N-{2-[7-(4-fluorobenzyl)-9-oxa-3,7-diaza-bicyclo[3.3.1]non-3-yl]ethyl}methanesulfonamide] | 1580 nM
